Results reported in the Kinase Knowledgebase extract (Sharma et al. 2016).

These compounds were tested against PIK3CD (Human) (UniProt O00329) (assay: Cell-Based Assay). Conditions: u937.
Chain of PIK3CD (Human) (O00329 whole entry, looked up): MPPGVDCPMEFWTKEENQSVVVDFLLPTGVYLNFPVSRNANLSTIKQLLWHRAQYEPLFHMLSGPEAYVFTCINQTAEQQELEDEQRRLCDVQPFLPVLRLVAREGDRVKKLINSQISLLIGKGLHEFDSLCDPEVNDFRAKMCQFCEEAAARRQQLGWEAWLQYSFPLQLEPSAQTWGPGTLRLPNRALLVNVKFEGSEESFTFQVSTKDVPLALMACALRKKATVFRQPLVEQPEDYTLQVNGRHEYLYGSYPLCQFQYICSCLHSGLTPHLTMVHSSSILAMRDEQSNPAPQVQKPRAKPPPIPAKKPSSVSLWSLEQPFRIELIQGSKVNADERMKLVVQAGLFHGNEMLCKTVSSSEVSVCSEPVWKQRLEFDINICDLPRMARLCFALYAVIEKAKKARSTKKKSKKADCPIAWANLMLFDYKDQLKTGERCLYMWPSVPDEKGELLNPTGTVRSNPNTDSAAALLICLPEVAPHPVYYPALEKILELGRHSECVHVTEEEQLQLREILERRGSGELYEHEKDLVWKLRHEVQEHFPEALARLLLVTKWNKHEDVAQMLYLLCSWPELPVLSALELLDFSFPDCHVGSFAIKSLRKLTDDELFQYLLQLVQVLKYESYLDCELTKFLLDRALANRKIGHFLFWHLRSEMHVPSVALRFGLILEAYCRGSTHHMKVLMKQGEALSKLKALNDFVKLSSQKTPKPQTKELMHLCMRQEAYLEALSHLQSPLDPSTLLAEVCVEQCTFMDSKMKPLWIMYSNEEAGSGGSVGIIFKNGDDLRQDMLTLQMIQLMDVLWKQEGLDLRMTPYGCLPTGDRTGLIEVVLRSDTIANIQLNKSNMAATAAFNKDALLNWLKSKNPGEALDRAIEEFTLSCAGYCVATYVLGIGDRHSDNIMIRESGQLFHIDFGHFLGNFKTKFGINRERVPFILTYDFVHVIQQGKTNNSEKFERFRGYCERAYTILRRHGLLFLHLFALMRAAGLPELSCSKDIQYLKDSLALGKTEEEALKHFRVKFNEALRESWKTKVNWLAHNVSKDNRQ

Structure (SMILES)	IC50
C#Cc1cccc2nc(Cn3nc(-c4ccc(O)cc4)c4c(N)ncnc43)n(Cc3ccc(Cl)cc3F)c(=O)c12	< 10 nM
C#Cc1cccc2nc(Cn3nc(-c4ccc(O)cc4)c4c(N)ncnc43)n(Cc3ccccc3F)c(=O)c12	< 10 nM
Nc1ncnc2c1c(-c1cccc(O)c1)nn2Cc1nc2cccc(C#CCCCCC(=O)N3CCOCC3)c2c(=O)n1Cc1ccccc1Cl	< 10 nM
Nc1ncnc2c1c(-c1ccc(O)cc1)nn2Cc1nc2cccc(C#CCOCc3ccccc3)c2c(=O)n1Cc1ccccc1Cl	< 10 nM
Cn1cc(Cn2c(Cn3nc(-c4cccc(O)c4)c4c(N)ncnc43)nc3cccc(C#CCCCC(=O)N4CCOCC4)c3c2=O)cn1	< 10 nM
C#Cc1cccc2nc(Cn3nc(-c4cccc(O)c4)c4c(N)ncnc43)n(Cc3cccc(C#N)c3)c(=O)c12	< 10 nM
CN(C)C(=O)CCCC#Cc1cccc2nc(Cn3nc(-c4ccc(O)cc4)c4c(N)ncnc43)n(Cc3ccccc3Cl)c(=O)c12	< 10 nM
Nc1ncnc2c1c(-c1ccc(O)cc1)nn2Cc1nc2cccc(C#CCCCC(=O)N3CCCCC3)c2c(=O)n1Cc1ccccc1Cl	< 10 nM
N#Cc1cccc(Cn2c(Cn3nc(-c4cccc(O)c4)c4c(N)ncnc43)nc3cccc(C#CCOCCOCCO)c3c2=O)c1	< 10 nM
COCCOCCOCC#Cc1cccc2nc(Cn3nc(-c4cccc(O)c4)c4c(N)ncnc43)n(Cc3ccccc3F)c(=O)c12	< 10 nM
C#Cc1cccc2nc(Cn3nc(-c4ccc(O)cc4)c4c(N)ncnc43)n(Cc3ccc(C#N)cc3)c(=O)c12	< 10 nM
CN(C)C1CCN(C(=O)CCCC#Cc2cccc3nc(Cn4nc(-c5ccc(O)cc5)c5c(N)ncnc54)n(Cc4ccccc4Cl)c(=O)c23)C1 (stereo unspecified)	< 10 nM
C#Cc1cccc2nc(Cn3nc(-c4cccc(O)c4)c4c(N)ncnc43)n(Cc3cc(C)on3)c(=O)c12	< 10 nM
COC(=O)c1cccc(Cn2c(Cn3nc(-c4cccc(O)c4)c4c(N)ncnc43)nc3cccc(C#CCCCC(=O)N4CCOCC4)c3c2=O)c1	< 10 nM
Nc1ncnc2c1c(-c1cccc(O)c1)nn2Cc1nc2cccc(C#CCCCC(=O)N3CCOCC3)c2c(=O)n1Cc1ccc2occc2c1	< 10 nM
Nc1ncnc2c1c(-c1ccc(O)cc1)nn2Cc1nc2cccc(C#CCCCO)c2c(=O)n1Cc1ccccc1Cl	< 10 nM
C#Cc1cccc2nc(Cn3nc(-c4ccc(O)cc4)c4c(N)ncnc43)n(Cc3ccccc3)c(=O)c12	< 10 nM
CN1CCN(CCNC(=O)CCCC#Cc2cccc3nc(Cn4nc(-c5ccc(O)cc5)c5c(N)ncnc54)n(Cc4ccccc4Cl)c(=O)c23)CC1	< 10 nM

Structure (SMILES)	IC50
NC(=O)NCC#Cc1cccc2nc(Cn3nc(-c4ccc(O)cc4)c4c(N)ncnc43)n(Cc3ccccc3Cl)c(=O)c12	< 10 nM
CN1CCN(CCN(C)C(=O)CCCC#Cc2cccc3nc(Cn4nc(-c5ccc(O)cc5)c5c(N)ncnc54)n(Cc4ccccc4Cl)c(=O)c23)CC1	< 10 nM
C#Cc1cccc2nc(Cn3nc(-c4ccc(O)cc4)c4c(N)ncnc43)n(Cc3ccc(F)cc3)c(=O)c12	< 10 nM
C#Cc1cccc2nc(Cn3nc(-c4cccc(O)c4)c4c(N)ncnc43)n(Cc3ccc(S(C)(=O)=O)cc3)c(=O)c12	< 10 nM
C#Cc1cccc2nc(Cn3nc(-c4ccc(O)c(F)c4)c4c(N)ncnc43)n(Cc3ccccc3Cl)c(=O)c12	< 10 nM
C#Cc1cccc2nc(Cn3nc(-c4cccc(O)c4)c4c(N)ncnc43)n(Cc3ccc(C(F)(F)F)cc3)c(=O)c12	< 10 nM
Nc1ncnc2c1c(-c1ccc(O)cc1)nn2Cc1nc2cccc(C#CCCCC(=O)N3CCOCC3)c2c(=O)n1Cc1cc2ccccc2s1	< 10 nM
CN(C)C1CCN(C(=O)CCCC#Cc2cccc3nc(Cn4nc(-c5ccc(O)cc5)c5c(N)ncnc54)n(Cc4ccccc4Cl)c(=O)c23)CC1	< 10 nM
C#Cc1cccc2nc(Cn3nc(-c4ccc(O)cc4)c4c(N)ncnc43)n(Cc3cccc(Cl)c3)c(=O)c12	< 10 nM
C#Cc1cccc2nc(Cn3nc(-c4ccc(O)cc4)c4c(N)ncnc43)n(Cc3ccc(S(C)(=O)=O)cc3)c(=O)c12	< 10 nM
COCCNC(=O)CCCC#Cc1cccc2nc(Cn3nc(-c4cccc(O)c4)c4c(N)ncnc43)n(Cc3ccccc3Cl)c(=O)c12	< 10 nM
Nc1ncnc2c1c(-c1cccc(O)c1)nn2Cc1nc2cccc(C#CCCC(=O)N3CCOCC3)c2c(=O)n1Cc1ccccc1Cl	< 10 nM
COc1cc(-c2nn(Cc3nc4cccc(C#CCCCC(=O)N5CCOCC5)c4c(=O)n3Cc3ccccc3Cl)c3ncnc(N)c23)ccc1O	< 10 nM
Nc1ncnc2c1c(-c1ccc(O)cc1)nn2Cc1nc2cccc(C#CCOc3ccccc3)c2c(=O)n1Cc1ccccc1Cl	< 10 nM
C#Cc1cccc2nc(Cn3nc(-c4ccc(O)cc4)c4c(N)ncnc43)n(Cc3cccc(C(F)(F)F)c3)c(=O)c12	< 10 nM
CC(=O)N1CCN(C(=O)CCCC#Cc2cccc3nc(Cn4nc(-c5ccc(O)cc5)c5c(N)ncnc54)n(Cc4ccccc4Cl)c(=O)c23)CC1	< 10 nM
C#Cc1cccc2nc(Cn3nc(-c4ccc(F)c(O)c4)c4c(N)ncnc43)n(Cc3ccccc3Cl)c(=O)c12	< 10 nM
CN1CCCN(C(=O)CCCC#Cc2cccc3nc(Cn4nc(-c5cccc(O)c5)c5c(N)ncnc54)n(Cc4ccccc4Cl)c(=O)c23)CC1	10 to 1000 nM
